Values of other authors, collected in patent EP0858808B1, “Peptides for use in wound treatment” (Johnson & Johnson Medical Ltd., priority 1997, dated 2003).

Tested on: human fibroblast
Conditions: concentration range 2.5 mM to 25 mM

Gly-Pro-Ala
chemotactic activity: no chemotactic activity
